{"source": "patent US20040242537A1", "about": "“Acetylation method of chitosan” (priority 2001, published 2004)", "conditions": "pH 7"}
{"substance": "chitosan", "values": [{"measurement": "solubility according to pH", "result": "rapid decrease in solubility"}]}
